Reference: patent US20210330611A1, “THERAPY FOR NEUROLOGICAL DISEASES/DISORDERS” (priority 2020, published 2021)
Counter-ions that a name gives are not always drawn. Like-named read-outs stand apart in the source and are kept apart here.

Legend:
[1] = system: fibrin-induced microglia activation; assay: Image-based assay of fibrin-induced microglia activation (HTS and dose response); assay type: cell-based, rat; conditions: for inhibition at 10 µM: Rattus norvegicus, Microglia, read-out: Fibrin % inhibition
primary rat microglia [2] = system: primary rat microglia;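 on Fibrin % cell toxicity: share of dead cells sized under 150 µm2 at 10 µM in fibrin-stimulated microglia HTS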
primary rat microglia [3] = system: primary rat microglia; remark: listed apart in the source;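 on Fibrin % cell toxicity: share of dead cells sized under 150 µm2 at 10 µM in fibrin-stimulated microglia HTS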
[4] = system: LPS-induced microglia activation; assay: Image-based assay of LPS-induced microglia activation (HTS and dose response); assay type: cell-based, rat
[5] = system: fibrin- and LPS-induced microglia activation; assay: cells; assay type: cell-based, rat
[6] = primary microglia HTS, fibrin stimulation, cell size >800 μm2 as marker of activation
[7] = Rattus norvegicus, Microglia, 48 h; read-out: LPS % inhibition
[8] = classification by fibrin and LPS inhibition in HTS
[9] = Rattus norvegicus, Microglia, 48 h, read-out: LPS % inhibition
[10] = primary microglia HTS, fibrin stimulation, increased cell size (>800 μm^2) as marker of activation
[11] = quadrant by fibrin and LPS inhibition in HTS of 1907 compounds
[12] = Rattus norvegicus, Microglia, 48 h, primary microglia HTS, LPS stimulation; increased cell size (>800 μm^2) as marker of activation; read-out: LPS % inhibition

Row | Compound | inhibition at 10 µM [1, 6] [%] | LPS % cell toxicity (primary rat microglia [2]; rat) [%] | Fibrin % cell toxicity (primary rat microglia [3]; rat) [%] | inhibition at 10 µM [4, 7] [%] | Quadrant (FIG. 5b) [5, 8] | Quadrant (FIG. 5b) [5] | other results
1 | CNC(=O)Oc1ccc2c(c1)[C@]1(C)CCN(C)[C@@H]1N2C [Physostigmine] | -73 | 0 | 0 | 18 | Q4 |  | 
2 | CCn1cc(C(=O)O)c(=O)c2cnc(N3CCNCC3)nc21 [Pipemidic Acid] | -27 | 0 | 1 | 12 | Q4 |  | 
3 | C1CNCCN1 [Piperazine] |  | 0 | 0 |  |  | Q4 | inhibition at 10 µM [1]: -3%; inhibition at 10 µM [4, 9]: 16%
4 | CCCCOCCOCCOCc1cc2c(cc1CCC)OCO2 [Piperonyl Butoxide] |  | 0 | 0 |  |  | Q4 | inhibition at 10 µM [1]: 0%; inhibition at 10 µM [4, 9]: 12%
5 | CN1CCN(CC(=O)N2c3ccccc3C(=O)Nc3cccnc32)CC1 [Pirenzepine] |  | 0 | 0 |  |  | Q4 | inhibition at 10 µM [1]: 16%; inhibition at 10 µM [4, 9]: 19%
6 | O=C([O-])C[C@H](O)C[C@H](O)/C=C/c1c(C2CC2)nc2ccccc2c1-c1ccc(F)cc1.O=C([O-])C[C@H](O)C[C@H](O)/C=C/c1c(C2CC2)nc2ccccc2c1-c1ccc(F)cc1.[Ca+2] [Pitavastatin calcium, reference compound] |  |  |  |  |  | Q2 | Fibrin % inhibition [1]: 100%; Fibrin Selectivity [1]: 4; Fibrin Selectivity (LOG10) [1]: 0.61; IC50 ([1]; read-out: Fibrin IC50): 1 µM; IC50 ([1]; read-out: Fibrin IC50 (uM) (Suppl. Table 7)): 1 µM; IC50 (primary rat microglia [2]): > 20 µM; LPS % cell toxicity (primary rat microglia [2]): 1%; Fibrin % cell toxicity (primary rat microglia [3]): 1%; IC50 (primary rat microglia [3]): > 20 µM; LPS % inhibition [4]: 66%; IC50 ([4]; read-out: LPS IC50): 5 µM; IC50 ([4]; read-out: LPS IC50 (uM) (Suppl. Table 7)): 5 µM; Cherry-picked Hit (Suppl. Table 7) [5]: HIT (key: HIT: Hits were defined as molecules that exhibited greater than 50% inhibition of either fibrin or LPS activation); Hit [5]: HIT (key: HIT: Hits were defined as molecules that exhibited greater than 50% inhibition of either fibrin or LPS activation)
7 | COc1cc([C@@H]2c3cc4c(cc3[C@H](O)[C@H]3COC(=O)[C@H]23)OCO4)cc(OC)c1OC [Podofilox/Podophyllotoxin] |  |  |  |  |  |  | Fibrin % inhibition [1, 10]: 110%; LPS % cell toxicity (primary rat microglia [2]): 9%; Fibrin % cell toxicity (primary rat microglia [3]): 8%; LPS % inhibition ([4]; primary microglia HTS, LPS stimulation; increased cell size (>800 μm^2) as marker of activation): 107%; Quadrant (FIG. 5b) [5, 11]: Q2
8 | CC(=O)O[C@H]1CC[C@@]2(C)C(=CC[C@@H]3[C@@H]2CC[C@]2(C)C(=O)CC[C@@H]32)C1 [Praesterone Acetate, Prasterone Acetate] |  |  |  |  | Q4 |  | Fibrin % inhibition [1, 6]: −3%; LPS % cell toxicity (primary rat microglia [2]): 0%; Fibrin % cell toxicity (primary rat microglia [3]): 1%; LPS % inhibition [4]: 5%
9 | C[n+]1ccccc1/C=N/O [Pralidoxime] |  | 0 | 1 |  |  | Q4 | inhibition at 10 µM [1]: -12%; inhibition at 10 µM [4, 9]: 17%
10 | CCCN[C@H]1CCc2nc(N)sc2C1 [Pramipexole] |  | 0 | 1 |  |  | Q4 | inhibition at 10 µM [1]: -19%; inhibition at 10 µM [4, 9]: 1%
11 | O=C(C1CCCCC1)N1CC(=O)N2CCc3ccccc3C2C1 (centres unmarked) [Praziquantel] | -3 | 0 | 1 | 21 | Q4 |  | 
12 | CC(=O)[C@H]1CC[C@H]2[C@@H]3CC=C4C[C@@H](OC(=O)CCC(=O)O)CC[C@]4(C)[C@H]3CC[C@]12C [Pregnenolone Succinate] | 4 | 1 | 1 | 21 | Q4 |  | 
13 | COc1cc(NC(C)CCCN)c2ncccc2c1 (centres unmarked) [Primaquine] |  | 0 | 0 |  |  | Q4 | inhibition at 10 µM [1]: -58%; inhibition at 10 µM [4, 9]: 7%
14 | CCCN(CCC)S(=O)(=O)c1ccc(C(=O)O)cc1 [Probenecid] | 14 | 0 | 1 | 13 | Q4 |  | 
15 | CNNCc1ccc(C(=O)NC(C)C)cc1 [Procarbazine] | -21 | 0 | 1 | 9 | Q4 |  | 
16 | CC(=O)[C@H]1CC[C@H]2[C@@H]3CCC4=CC(=O)CC[C@]4(C)[C@H]3CC[C@]12C [Progesterone] | 36 | 0 | 1 | 36 | Q4 |  | 

Row | Compound | inhibition at 10 µM [1, 6] [%] | LPS % cell toxicity (primary rat microglia [2]; rat) [%] | Fibrin % cell toxicity (primary rat microglia [3]; rat) [%] | inhibition at 10 µM [4, 7] [%] | Quadrant (FIG. 5b) [5, 8] | Quadrant (FIG. 5b) [5] | other results
17 | CC(C)NCC(O)c1ccc2ccccc2c1 (centres unmarked) [Pronetalol Hydrochloride] | -12 | 0 | 1 | 10 | Q4 |  | 
18 | CCCc1cc(=O)[nH]c(=S)[nH]1 [Propylthiouracil] |  | 0 | 0 |  |  | Q4 | inhibition at 10 µM [1]: -4%; inhibition at 10 µM [4, 9]: 8%
19 | NC(=O)[C@@H]1CCCN1C(=O)[C@H](Cc1cnc[nH]1)NC(=O)[C@@H]1CCC(=O)N1 [Protirelin] |  |  |  |  | Q4 |  | Fibrin % inhibition [1, 6]: 2%; LPS % cell toxicity (primary rat microglia [2]): 1%; Fibrin % cell toxicity (primary rat microglia [3]): 1%; LPS % inhibition [4]: 15%
20 | CNCCCC1c2ccccc2C=Cc2ccccc21 [Protriptyline] |  | 0 | 1 |  |  | Q4 | inhibition at 10 µM [1]: 21%; inhibition at 10 µM [4, 9]: 15%
21 | Cc1ncc(CO)c(CO)c1O [Pyridoxine] | 1 | 0 | 1 | 21 | Q4 |  | 
22 | [O-][n+]1ccccc1[S-].[O-][n+]1ccccc1[S-].[Zn+2] [Pyrithione Zinc] |  |  |  |  |  | Q2 | Fibrin % inhibition ([1]; 10 µM): 109%; LPS % cell toxicity (primary rat microglia [2]): 87%; Fibrin % cell toxicity (primary rat microglia [3]): 86%; LPS % inhibition ([4]; 10 µM): 127%
23 | CCN(CC)CCCC(C)Nc1c2ccc(Cl)cc2nc2ccc(OC)cc12 (centres unmarked) [Quinacrine] |  | 65 | 1 |  |  |  | inhibition at 10 µM [1, 10]: 24%; inhibition at 10 µM [4, 12]: 118%; Quadrant (FIG. 5b) [5, 11]: Q1
24 | C=C[C@H]1C[N@@]2CC[C@H]1C[C@@H]2[C@@H](O)c1ccnc2ccc(OC)cc12 [Quinidine] | -6 | 0 | 1 | 20 | Q4 |  | 
25 | C=C[C@H]1C[N@@]2CC[C@H]1C[C@H]2[C@H](O)c1ccnc2ccc(OC)cc12 [Quinine Sulfate] |  | 1 | 1 |  | Q4 |  | Fibrin % inhibition [1, 6]: −30%; LPS % inhibition [4]: 14%
26 | C=C[C@H]1C[N@@]2CC[C@H]1C[C@H]2[C@H](O)c1ccnc2ccc(OC)cc12 [Quinine] |  | 0 | 1 |  | Q4 |  | Fibrin % inhibition [1, 6]: −32%; LPS % inhibition [4]: −7%
27 | O=C(c1ccc(OCCN2CCCCC2)cc1)c1c(-c2ccc(O)cc2)sc2cc(O)ccc12 [Raloxifene] |  | 1 | 0 |  |  |  | inhibition at 10 µM [1, 10]: 7%; inhibition at 10 µM [4, 12]: 60%; Quadrant (FIG. 5b) [5, 11]: Q1
28 | CCOc1ccccc1OC(c1ccccc1)C1CNCCO1.CS(=O)(=O)O (centres unmarked) [Reboxetine Mesylate] |  |  |  |  | Q4 |  | Fibrin % inhibition [1, 6]: −33%; LPS % cell toxicity (primary rat microglia [2]): 0%; Fibrin % cell toxicity (primary rat microglia [3]): 1%; LPS % inhibition ([4]; primary microglia HTS, LPS stimulation, cell size >800 μm2 as marker of activation): 8%
29 | COC(=O)[C@H]1[C@H]2C[C@@H]3c4[nH]c5cc(OC)ccc5c4CCN3C[C@H]2C[C@@H](OC(=O)c2cc(OC)c(OC)c(OC)c2)[C@@H]1OC [Reserpine] |  | 7 | 3 |  |  |  | inhibition at 10 µM [1, 10]: -4%; inhibition at 10 µM [4, 12]: 64%; Quadrant (FIG. 5b) [5, 11]: Q1
30 | Oc1cccc(O)c1 [Resorcinol] | -4 | 0 | 0 |  | Q4 |  | inhibition at 10 µM ([4]; Rattus norvegicus, Microglia, 48 h, primary microglia HTS, LPS stimulation, cell size >800 μm2 as marker of activation; read-out: LPS % inhibition): 8%
31 | CCCCCCCCCCCCCCCC(=O)OC/C=C(C)/C=C/C=C(C)/C=C/C1=C(C)CCCC1(C)C [Retinyl Palmitate] | -15 | 0 | 0 | 11 | Q4 |  | 
32 | CO[C@H]1/C=C/O[C@@]2(C)Oc3c(C)c(O)c4c(c3C2=O)C2=NC3(CCN(CC(C)C)CC3)NC2=C(NC(=O)/C(C)=C\C=C\[C@H](C)[C@H](O)[C@@H](C)[C@@H](O)[C@@H](C)[C@H](OC(C)=O)[C@@H]1C)C4=O [Rifabutin] | -51 | 0 | 0 | 2 | Q4 |  | 
